From ChEMBL document CHEMBL1201862, “PubChem BioAssay data set” (2004) come the findings set out here.

Experiment [1] in a line: inhibition of ADP-Glo detection reagents, dose response, artefact control for CDK5 inhibitor project, biochemical, luminescence, cherry-picked samples, set 2 (AID 504546). In kind it is functional.
The target of experiment [2] is Luciferin 4-monooxygenase (Photinus pyralis, UniProt P08659). In words: firefly luciferase enzyme inhibitors, dose response, biochemical, luminescence (AID 1891).
The target in experiment [3] is T1, Heat shock factor protein 1 (Mus musculus, UniProt P38532).
T1 sequence (P38532 whole entry): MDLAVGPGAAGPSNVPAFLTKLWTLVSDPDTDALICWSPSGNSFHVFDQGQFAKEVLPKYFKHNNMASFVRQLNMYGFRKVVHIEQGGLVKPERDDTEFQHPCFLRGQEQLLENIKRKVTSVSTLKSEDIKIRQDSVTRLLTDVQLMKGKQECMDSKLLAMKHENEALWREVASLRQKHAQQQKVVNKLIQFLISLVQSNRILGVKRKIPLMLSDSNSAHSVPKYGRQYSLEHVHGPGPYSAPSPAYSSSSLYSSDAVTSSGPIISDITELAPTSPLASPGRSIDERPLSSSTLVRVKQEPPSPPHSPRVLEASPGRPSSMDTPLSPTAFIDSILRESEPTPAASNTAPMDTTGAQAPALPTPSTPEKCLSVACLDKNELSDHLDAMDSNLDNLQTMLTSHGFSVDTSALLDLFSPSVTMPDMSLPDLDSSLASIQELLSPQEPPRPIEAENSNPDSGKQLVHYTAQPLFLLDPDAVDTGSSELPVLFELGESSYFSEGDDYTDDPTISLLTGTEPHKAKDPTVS
In words: inhibition of MG132-induced HSE-luciferase signal, confirmation, cell-based, NIH3T3, luminescence, dose retest (AID 2382).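 Note: NIH3T3 fibroblasts with HSF1-driven luciferase reporter stressed by proteasome inhibitor MG132; luminescence from HSF1-driven luciferase expression after 8 hours of MG132 stress.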 In kind it is functional.

In experiment [4] the target is Cyclin-dependent kinase 5/CDK5 activator 1 (Homo sapiens, UniProt Q00535). In words: CDK5/p35 kinase inhibitors, dose response, biochemical, cherry-picked samples, set 2 (AID 504545).
Experiment [5] in a line: non-specific cell cytotoxicity, dose response, cytotoxicity control for PAX8 inhibitor project, plate reader, dry powder samples (AID 743021). It is filed as functional, cell-based.
The nature of experiment [6]: cytotoxicity in HEK-293T cells, dose response, cytotoxicity control for TCR NF-kB inhibitor project, luminescence, T-cell screen hits (AID 489026).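 Note: cells exposed to compound about 14 hours before the viability readout.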 In kind it is functional, cell-based.
The nature of experiment [7]: Luminescence Cell-Based Dose Confirmation HTS to Identify Inhibitors of Platelet Dense Granule Release. [Related pubchem assays: 1663 (Primary HTS), 1678 (Summary of Project)]. In kind it is functional.
The target of a further experiment is Paired box protein Pax-8 (Homo sapiens, UniProt Q06710). As to the kind of experiment: inhibitors of PAX8-driven TPO luciferase reporter, dose response, RMG-I cells, cherry-pick (AID 687027).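 Note: luciferase reporter driven by Pax8 target thyroperoxidase promoter measured by SteadyGlo luminescence.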 It is filed as functional, cell-based.
Experiment [8] deals with Acyl-homoserine lactone acylase PvdQ (Pseudomonas aeruginosa (strain LESB58), UniProt Q9I194). In words: P. aeruginosa PvdQ acylase inhibitors, dose response, biochemical, fluorescence, plate reader and imaging, cherry-picks (AID 493231).
The target in experiment [9] is Eukaryotic translation initiation factor 4H (Homo sapiens, UniProt Q15056). As to the kind of experiment: eIF4H inhibition in translation initiation, SAR follow-up (AID 435011). It is filed as functional.
Experiment [10] concerns the target Polyadenylate-binding protein 1 (Homo sapiens, UniProt P11940). As to the kind of experiment: PABP inhibition in translation initiation, SAR follow-up (AID 435018). It is filed as functional.
Experiment [11] concerns the target Melanin-concentrating hormone receptor 1 (Homo sapiens, UniProt Q99705). As to the kind of experiment: Late-stage fluorescence-based counterscreen for antagonists of the G-protein coupled receptor 7 (GPR7): cell-based dose response assay to identify antagonists of the melanin-concentrating hormone receptor 1 (MCHR1). [Related pubchem assays (depositor defined):AID1861, AID1880, AID1952, AID2148, AID2251, AID2257, AID485339]. In kind it is functional. For orientation: The purpose of a counterscreen is to sort out artefacts and off-target activity.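 Note: stimulated with 30 nM MCH peptide agonist.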

The target in experiment [12] is T2, Neuropeptides B/W receptor type 1 (Homo sapiens, UniProt P48145).
T2 sequence (P48145 whole entry): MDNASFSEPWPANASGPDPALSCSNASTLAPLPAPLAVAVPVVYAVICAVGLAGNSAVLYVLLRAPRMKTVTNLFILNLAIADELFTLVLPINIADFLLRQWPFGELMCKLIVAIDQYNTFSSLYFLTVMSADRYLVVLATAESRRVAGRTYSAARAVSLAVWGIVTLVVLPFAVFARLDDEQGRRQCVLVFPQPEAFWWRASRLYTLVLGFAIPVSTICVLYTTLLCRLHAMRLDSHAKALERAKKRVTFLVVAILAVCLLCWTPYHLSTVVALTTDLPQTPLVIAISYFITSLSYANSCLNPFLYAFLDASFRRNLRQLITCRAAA
In words: GPR7 antagonist potency, late-stage follow-up, cell-based, fluorescence, dose response (AID 463251). It is filed as functional.

For experiment [13], the target named is Potassium voltage-gated channel subfamily KQT member 2 (Rattus norvegicus, UniProt O88943). In words: retigabine-insensitive KCNQ2 potentiators, concentration-response, dose response, cell-based, retigabine-insensitive compounds (AID 2654). In kind it is functional.
Experiment [14] concerns the target Voltage-gated N-type calcium channel alpha-1B subunit/Amyloid beta A4 precursor protein-binding family A member 1 (Homo sapiens, UniProt Q00975+Q02410). As to the kind of experiment: disruptors of Mint-PDZ/N-type channel peptide interaction – biochemical, HTRF, set 2, SAR follow-up (AID 434980). In kind it is functional. On the technique in general: TR-FRET usually uses a lanthanide donor and a delayed reading to cut background.

For experiment [15], the target named is G-protein coupled receptor 35 (Homo sapiens, UniProt Q9HC97). In words: SAR analysis of Antagonists of the GPR35 Receptor using an Image-Based Assay - Set 5. [Related pubchem assays (depositor defined):AID2058, AID2079]. It is filed as functional.
The target in experiment [16] is G-protein coupled receptor 55 (Homo sapiens, UniProt Q9Y2T6). In words: SAR Analysis of Selective Antagonists of GPR55 using an Image-Based Assay - Set 3. [Related pubchem assays (depositor defined):AID2058, AID2079]. It is filed as functional.
Experiment [17] has as its target Protein phosphatase methylesterase 1 (Homo sapiens, UniProt Q9Y570). In words: PME-1 inhibitor potency by in-gel ABPP, dose response, selectivity assay for PME-1 inhibitor project, cell lysate, mouse brain cytosol, FP-rhodamine, panel member PME-1 Assay Panel member description: Inhibition of endogenously expressed PME-1 (AID 2366).
Experiment [18] deals with T1, Heat shock factor protein 1. As to the kind of experiment: HSF1 potentiators in luciferase reporter cells, confirmation, cell-based, NIH3T3, luminescence, dose retest (AID 435004).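 Note: stress induced by proteasome inhibitor MG132 added 30 min after compound; luciferase reporter driven by HSF1 response element in NIH3T3 cells; actives raise luminescence as potentiators of the MG132 stress response.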 In kind it is functional.
The target in experiment [19] is Neurotensin receptor type 1 (Homo sapiens, UniProt P30989). In kind it is functional.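 Note: Image-based confirmatory dose-response assay measuring agonist activity at NTR1; NTR1-expressing U2OS osteosarcoma cells imaged for beta-arrestin GFP spot formation; agonist potency where compounds increase beta-arrestin recruitment.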
Experiment [20] concerns the target G2/mitotic-specific cyclin-B1 (Homo sapiens, UniProt P14635). In words: G2/M cell cycle arrest in HeLa, late-stage follow-up, mechanism study for Wee1 degradation inhibitor project, FACS, panel member Cyclin B Degradation (AID 2088).
The next experiment concerns the target Wee1-like protein kinase (Homo sapiens, UniProt P30291). As to the kind of experiment: G2/M cell cycle arrest in HeLa, late-stage follow-up, mechanism study for Wee1 degradation inhibitor project, FACS, panel member Wee1 Degradation (AID 2088).

One may read the AC50 as the midpoint of the concentration-response curve, whichever way the signal moves. Broadly, the EC50 is the concentration at which the effect is half-maximal. The term IC50 denotes the concentration at which inhibition is half-maximal.

Active and inactive are the calls of the source.

Luciferin 4-monooxygenase, sequence (P08659 whole entry): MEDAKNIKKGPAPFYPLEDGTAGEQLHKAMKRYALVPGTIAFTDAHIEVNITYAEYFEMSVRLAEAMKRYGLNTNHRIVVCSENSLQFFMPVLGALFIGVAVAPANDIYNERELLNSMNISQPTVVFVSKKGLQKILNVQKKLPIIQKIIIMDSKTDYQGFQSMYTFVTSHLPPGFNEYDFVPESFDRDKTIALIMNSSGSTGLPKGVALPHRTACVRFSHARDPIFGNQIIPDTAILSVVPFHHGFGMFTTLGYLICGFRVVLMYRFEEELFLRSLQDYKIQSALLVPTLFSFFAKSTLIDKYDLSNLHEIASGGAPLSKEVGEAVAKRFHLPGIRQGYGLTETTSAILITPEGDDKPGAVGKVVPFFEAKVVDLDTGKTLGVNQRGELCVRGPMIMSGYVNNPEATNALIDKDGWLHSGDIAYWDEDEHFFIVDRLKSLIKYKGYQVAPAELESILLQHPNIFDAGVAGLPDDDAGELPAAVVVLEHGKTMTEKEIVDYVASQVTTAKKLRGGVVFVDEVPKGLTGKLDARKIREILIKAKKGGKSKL
Neurotensin receptor type 1, sequence (P30989 whole entry): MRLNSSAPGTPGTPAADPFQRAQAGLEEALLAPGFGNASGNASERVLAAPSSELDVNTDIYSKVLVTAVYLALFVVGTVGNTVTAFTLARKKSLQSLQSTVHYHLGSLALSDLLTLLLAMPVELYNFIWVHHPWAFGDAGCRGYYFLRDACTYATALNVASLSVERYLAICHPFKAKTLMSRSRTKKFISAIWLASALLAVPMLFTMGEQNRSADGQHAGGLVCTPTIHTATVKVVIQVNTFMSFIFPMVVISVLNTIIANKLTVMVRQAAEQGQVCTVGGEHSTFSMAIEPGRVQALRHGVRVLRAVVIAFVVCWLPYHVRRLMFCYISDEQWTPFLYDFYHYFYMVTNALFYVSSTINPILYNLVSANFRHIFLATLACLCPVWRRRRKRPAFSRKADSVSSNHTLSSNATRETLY
Voltage-gated N-type calcium channel alpha-1B subunit/Amyloid beta A4 precursor protein-binding family A member 1, sequence (Q00975 whole entry): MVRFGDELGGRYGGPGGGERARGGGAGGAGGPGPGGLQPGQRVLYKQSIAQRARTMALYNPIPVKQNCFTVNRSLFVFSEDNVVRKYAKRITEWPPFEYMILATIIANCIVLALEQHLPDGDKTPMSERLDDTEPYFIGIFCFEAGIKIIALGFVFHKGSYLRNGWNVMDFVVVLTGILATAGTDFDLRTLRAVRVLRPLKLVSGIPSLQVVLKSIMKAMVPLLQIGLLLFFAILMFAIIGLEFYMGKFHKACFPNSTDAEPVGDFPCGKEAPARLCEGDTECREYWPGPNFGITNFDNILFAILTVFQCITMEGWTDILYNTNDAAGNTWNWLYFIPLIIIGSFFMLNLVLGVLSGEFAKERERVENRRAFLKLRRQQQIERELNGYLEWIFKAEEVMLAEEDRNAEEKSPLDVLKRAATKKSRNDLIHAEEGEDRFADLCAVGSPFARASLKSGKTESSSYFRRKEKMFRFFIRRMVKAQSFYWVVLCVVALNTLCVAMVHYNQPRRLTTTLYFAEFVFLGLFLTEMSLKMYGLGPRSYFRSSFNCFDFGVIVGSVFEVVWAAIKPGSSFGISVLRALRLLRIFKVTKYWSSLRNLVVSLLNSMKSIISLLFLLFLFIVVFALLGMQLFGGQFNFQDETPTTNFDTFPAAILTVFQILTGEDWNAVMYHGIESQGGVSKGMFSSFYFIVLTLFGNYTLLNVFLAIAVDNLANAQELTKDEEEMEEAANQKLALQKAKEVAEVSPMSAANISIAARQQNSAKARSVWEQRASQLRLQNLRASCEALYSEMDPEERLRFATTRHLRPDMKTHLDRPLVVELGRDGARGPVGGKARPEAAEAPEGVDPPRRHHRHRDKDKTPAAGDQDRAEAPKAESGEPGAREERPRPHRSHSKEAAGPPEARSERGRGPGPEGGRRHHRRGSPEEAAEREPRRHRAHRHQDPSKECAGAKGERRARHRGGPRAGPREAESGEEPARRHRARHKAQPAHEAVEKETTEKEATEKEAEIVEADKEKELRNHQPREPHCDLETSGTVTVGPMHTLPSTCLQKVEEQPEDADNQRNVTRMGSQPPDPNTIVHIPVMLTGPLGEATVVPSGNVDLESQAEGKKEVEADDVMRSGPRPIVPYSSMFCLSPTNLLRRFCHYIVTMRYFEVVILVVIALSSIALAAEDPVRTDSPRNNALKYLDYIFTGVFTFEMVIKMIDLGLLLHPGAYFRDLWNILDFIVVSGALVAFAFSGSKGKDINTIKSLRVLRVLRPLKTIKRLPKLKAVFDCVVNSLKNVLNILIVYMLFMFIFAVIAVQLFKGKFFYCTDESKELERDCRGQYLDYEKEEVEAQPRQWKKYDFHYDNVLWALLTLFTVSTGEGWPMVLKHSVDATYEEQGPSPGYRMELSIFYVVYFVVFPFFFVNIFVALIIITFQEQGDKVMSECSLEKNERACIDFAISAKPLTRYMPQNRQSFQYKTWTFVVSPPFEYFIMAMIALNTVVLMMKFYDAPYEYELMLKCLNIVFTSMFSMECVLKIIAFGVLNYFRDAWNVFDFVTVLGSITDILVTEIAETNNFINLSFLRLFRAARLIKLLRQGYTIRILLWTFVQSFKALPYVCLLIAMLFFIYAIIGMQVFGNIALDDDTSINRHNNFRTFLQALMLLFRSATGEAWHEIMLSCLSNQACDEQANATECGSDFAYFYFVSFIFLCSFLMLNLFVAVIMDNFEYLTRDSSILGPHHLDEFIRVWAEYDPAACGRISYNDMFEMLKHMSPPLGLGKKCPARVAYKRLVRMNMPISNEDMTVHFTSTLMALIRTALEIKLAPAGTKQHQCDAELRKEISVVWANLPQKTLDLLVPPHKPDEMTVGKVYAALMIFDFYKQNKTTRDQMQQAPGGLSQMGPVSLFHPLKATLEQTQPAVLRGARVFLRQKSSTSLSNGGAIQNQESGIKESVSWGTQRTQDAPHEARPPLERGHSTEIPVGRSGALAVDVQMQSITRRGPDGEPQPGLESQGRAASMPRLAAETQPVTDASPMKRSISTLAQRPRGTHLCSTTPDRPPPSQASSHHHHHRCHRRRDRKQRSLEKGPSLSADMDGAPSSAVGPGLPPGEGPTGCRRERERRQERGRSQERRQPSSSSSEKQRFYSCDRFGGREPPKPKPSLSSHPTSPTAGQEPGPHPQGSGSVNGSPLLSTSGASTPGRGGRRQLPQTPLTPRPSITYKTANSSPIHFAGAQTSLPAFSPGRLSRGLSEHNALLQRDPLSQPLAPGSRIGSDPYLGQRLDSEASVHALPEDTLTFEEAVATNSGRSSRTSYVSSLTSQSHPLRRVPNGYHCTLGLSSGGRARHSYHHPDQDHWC
Voltage-gated N-type calcium channel alpha-1B subunit/Amyloid beta A4 precursor protein-binding family A member 1, sequence (Q02410 whole entry): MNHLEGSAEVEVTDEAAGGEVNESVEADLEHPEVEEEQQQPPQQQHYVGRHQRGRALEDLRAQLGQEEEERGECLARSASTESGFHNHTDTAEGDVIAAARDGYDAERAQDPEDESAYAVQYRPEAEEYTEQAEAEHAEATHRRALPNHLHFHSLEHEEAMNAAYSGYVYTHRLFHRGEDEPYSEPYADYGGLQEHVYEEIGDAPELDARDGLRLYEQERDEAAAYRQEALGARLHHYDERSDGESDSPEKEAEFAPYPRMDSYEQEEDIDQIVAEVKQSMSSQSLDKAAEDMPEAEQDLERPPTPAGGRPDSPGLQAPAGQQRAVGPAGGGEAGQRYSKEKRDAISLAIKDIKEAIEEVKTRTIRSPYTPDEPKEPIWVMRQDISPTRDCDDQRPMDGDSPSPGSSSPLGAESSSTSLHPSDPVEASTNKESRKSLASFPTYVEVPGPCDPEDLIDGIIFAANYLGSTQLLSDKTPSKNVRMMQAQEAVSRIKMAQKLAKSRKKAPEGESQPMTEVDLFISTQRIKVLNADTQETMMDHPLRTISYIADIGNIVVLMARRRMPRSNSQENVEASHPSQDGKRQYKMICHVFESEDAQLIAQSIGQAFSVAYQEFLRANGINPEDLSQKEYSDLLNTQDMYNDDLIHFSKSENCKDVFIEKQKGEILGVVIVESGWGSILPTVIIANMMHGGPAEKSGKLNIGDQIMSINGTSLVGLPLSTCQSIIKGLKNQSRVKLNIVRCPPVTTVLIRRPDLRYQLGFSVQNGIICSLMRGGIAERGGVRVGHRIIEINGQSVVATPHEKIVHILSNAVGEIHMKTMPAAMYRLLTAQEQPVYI
G-protein coupled receptor 55, sequence (Q9Y2T6 whole entry): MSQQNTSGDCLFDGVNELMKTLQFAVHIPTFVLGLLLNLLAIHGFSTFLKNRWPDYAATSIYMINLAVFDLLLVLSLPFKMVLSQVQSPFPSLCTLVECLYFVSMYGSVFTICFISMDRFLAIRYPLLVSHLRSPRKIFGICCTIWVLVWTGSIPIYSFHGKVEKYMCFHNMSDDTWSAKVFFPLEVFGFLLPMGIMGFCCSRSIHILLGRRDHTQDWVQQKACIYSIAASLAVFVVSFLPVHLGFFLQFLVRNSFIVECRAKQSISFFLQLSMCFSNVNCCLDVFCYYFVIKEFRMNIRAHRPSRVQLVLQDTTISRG
G-protein coupled receptor 35, sequence (Q9HC97 whole entry): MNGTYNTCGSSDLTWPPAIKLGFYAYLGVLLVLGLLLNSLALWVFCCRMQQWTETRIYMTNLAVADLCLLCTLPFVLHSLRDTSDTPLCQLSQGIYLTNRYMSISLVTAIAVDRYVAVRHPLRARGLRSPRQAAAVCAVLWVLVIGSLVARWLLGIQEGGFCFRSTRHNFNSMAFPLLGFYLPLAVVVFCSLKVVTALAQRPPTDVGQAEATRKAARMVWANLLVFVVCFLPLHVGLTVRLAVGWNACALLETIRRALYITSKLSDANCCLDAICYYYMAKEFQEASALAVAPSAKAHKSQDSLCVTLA

`COc1ccc(C(=O)NNC(=O)c2ccccn2)cc1`: the AC50 in experiment [1] was 14.2 µM (active); in [4], 8.77 µM (active); in experiment [5], 15.7 µM (active); at Paired box protein Pax-8 it was 7.51 µM (active). Moreover, the EC50 in [2] was 0.98 µM (active); in experiment [3], 1.11 µM (active); in [7], 0.429 µM (active). The IC50 in experiment [6] was > 80 µM (inactive).
As to `N#CC(c1ccc(Cl)nn1)c1ccccc1Cl` (centres undefined), the AC50 in [8] was 0.944 µM (active).
Consider `Cc1nnc(NC(=O)CSc2ccc(-c3ccco3)nn2)s1`, for which the IC50 in [9] was 6.17 µM (active); in experiment [10], 64.1 µM (active).
`COc1nn(-c2cccc(C)c2)c(=O)c(Cl)c1Cl`: the IC50 in experiment [11] was 3.1 µM (active); in experiment [12], 5.4 µM (active).
For `O=C(Nc1cccc(F)c1)Nc1cncc(F)c1`, the EC50 in experiment [13] was 6.32 µM (active).
`O=C(c1cc(-c2ccco2)nc2ccccc12)N1CCC(N2CCCC2)CC1`: in experiment [14], the IC50 was > 56.8 µM (inactive).
Take `COC(=O)c1cnn(-c2ccc(F)cc2F)c1/C=N/NC(N)=S`: the EC50 in experiment [2] and in experiment [7] was > 112 µM (not active) each time. Besides, the IC50 in [15] and in [16] was > 32 µM (inactive) in each case.
Turning to `CC(C)c1cc(C(C)C)c(S(=O)(=O)n2cccc2/C=C(\C#N)S(C)(=O)=O)c(C(C)C)c1`, the IC50 in experiment [17] is > 20 µM (inactive).
For the compound `CC1(C)CC(=O)C(=Cc2cn(-c3ccccc3)nc2-c2ccccc2)C(=O)C1`, the EC50 was 20.7 µM (active) in experiment [18] and 33.9 µM (inactive) in [19].
As to `Cc1ccc(OCC(=O)Nc2cc(C)nn2-c2nc(C)cc(O)n2)cc1`, the values for the EC50 (in experiment [20]; on Wee1-like protein kinase) were > 49.7 µM (inactive) and > 16.6 µM (active), respectively.
